Laboratory results taken from patent US20070060605A1, “Compositions and methods for inhibiting platelet activation and thrombosis” (priority 2001, published 2007).
Where two headings read alike, the source gives them in different places.

Key:
Assay type in all cases: cell-based, human
platelet GPIIbIIIa = experiment: SFLLR-induced GPIIbIIIa activation (PAC-1 antibody, flow cytometry); settings: Homo sapiens, Platelet; agonist SFLLR; read-out: IC50s of inhibition of platelet GPIIbIIIa activation induced with SFLLR
Protocol: (§1) In order to assay platelet activation by cell surface marker expression, fresh PRP is isolated from donors who have not ingested aspirin for two weeks prior to donation. PRP (40 μl) is incubated with known or suspected inhibitor in DMSO or DMSO alone for 15 min. The sample is then incubated with the indicated agonist (e.g., SFLLR) for 10 min. Following incubation of the sample with the indicated agonist, 10 μl of reaction mixture is transferred to 5 μl of phycoerythrin (PE)-conjugated AC 1.2 anti-P-selectin antibody (for assessment of P-selectin surface expression) or fluorescein isothiocyanate (FITC)-conjugated PAC-1 antibody (for assessment of GPIIbIIIa activation). PBS (500 μl) is added to the sample after a 20 min incubation and the platelets are analyzed immediately by flow cytometry. Flow cytometry can be performed using, for example, a Becton-Dickinson FACSCalibur flow cytometer or its equivalent. Fluorescent channels are set at logarithmic gain. Ten thousand particles are acquired for each sample. A 530/30 band pass filter is used for FL-1 fluorescence. A 585/42 band pass filter is used for FL-2 fluorescence. FITC is measured in the FL-1 channel and PE is measured in the FL-2 channel. Data are analyzed using, for example, CellQuest software on a Macintosh PowerPC, or their equivalents.
(§2) Compounds were also tested by flow cytometry for the inhibition of SFLLR-induced GPIIbIIIa activation and P-selectin expression. In these experiments, freshly obtained PRP was prepared from healthy volunteers who had not ingested aspirin for two weeks prior to donation. Forty μl of PRP was incubated with inhibitor in DMSO or DMSO alone for 15 min. The sample was then incubated with the indicated agonist for 10 min. Following incubation of the sample with the indicated agonist, 10 μl of reaction mixture was transferred to 5 μl of PE-conjugated AC1.2 anti-P-selectin antibody (for assessment of P-selectin surface expression) or FITC-conjugated PAC-1 antibody (for assessment of GPIIbIIIa activation). PBS (500 μl) was added to the sample after a 20 min incubation and the platelets were analyzed immediately by flow cytometry. Flow cytometry was performed using a Becton-Dickinson FACSCalibur flow cytometer. Fluorescent channels were set at logarithmic gain. Ten thousand particles were acquired for each sample. A 530/30 band pass filter was used for FL-1 fluorescence. A 585/42 band pass filter was used for FL-2 fluorescence. FITC was measured in the FL-1 channel and PE was measured in the FL-2 channel. Data were analyzed using CellQuest software on a MacIntosh PowerPC.

[1] = system: PGE1-induced cAMP levels in platelets; experiment: Augmentation of PGE1-induced cAMP levels in platelets; settings: no single concentration
Protocol: One frequent target of anti-platelet agents is phosphodiesterase III (PDE III). […] The assay is performed as described by Liao et al., 1998, Eur J Pharmacol 349,107-114, incorporated herein by reference. Briefly, aliquots of PRP are exposed to increasing concentrations of the agent for 20 minutes. The PRP is then challenged with 1 μM PGE1 for 2 min The reaction is stopped by adding 10 mM EDTA, followed immediately by boiling for 2 min. The mixture is cooled to 4° C. and the precipitated protein is pelleted. cAMP content in the supernatant is quantitated using an enzyme immunoassay kit (Pharmacia-Amersham, N.J.) according to the instructions of the manufacturer.
In order to assess whether the compounds useful according to the invention might act through inhibition phosphodiesterase III, each was tested for its effect on PGE1-induced cAMP increase. Determination of platelet cAMP levels was performed as described by Liao et al., 1998, supra. Aliquots of PRP were exposed to increasing concentrations of the indicated compounds for 20 min. PRP was then challenged with 1 μM PGE1 for 2 min. The reaction was stopped with the addition of 10 mM EDTA followed immediately by boiling for 2 min. The mixture was then cooled to 4° C. and the precipitated protein was pelleted. Cyclic AMP content in the supernatant was then quantified using an enzyme immunoassay kit (Pharmacia-Amersham, N.J.) according to the instructions of the manufacturer.

platelets = experiment: Agonist-induced platelet granule secretion / activation (P-selectin expression by flow cytometry; ADP/ATP release); settings: for Inhibition of PMA-induced platelet responses: even at millimolar concentrations
Protocol: In order to monitor ATP release, a cocktail of 100 μM SFLLR (synthesized using solid phase Fmoc chemistry on an Applied Biosystems model 430A peptide synthesizer) and 3 mg/ml of luciferin/luciferase (Sigma, St. Louis, Mo.) in a volume of 10 μl is added to 20 μl of PRP. Samples are immediately analyzed for luminescence. Activated platelets supply the ATP necessary for luminescence of the luciferin/luciferase assay. Assays can be performed at high throughput through use of a microtiter plate system, e.g., 384-well plates and a Multidrop 384 (Thermo Labsystems, Helsinki), read with a high density imaging system, e.g., the Tundra system (Imaging Research, St. Catherine's, Ontario).
as §1
Compounds were tested for the ability to inhibit agonist-induced ADP/ATP release from platelet dense granules using a luciferin-luciferase reporter system. In this assay, compounds were incubated with platelet-rich plasma (PRP) for 30 min. A cocktail of the platelet agonist and luciferin-luciferase was then added to the wells. Plates were immediately analyzed using a Tundra high density luminescence imager. […] As a control, compounds were also screened in a platelet-free assay for the ability to inhibit luciferin-luciferase upon exposure to ATP.
Each of the compounds was tested for inhibition of platelet activation in response to the agonists SFLLR (a thrombin mimic), U46619 (a thromboxane A2 mimic), ADP and the phorbol ester PMA.
as §2, with “channel.” for “channel. Data were analyzed using CellQuest software on a MacIntosh PowerPC.”

[2] = Homo sapiens, Platelet, agonist ADP, read-out: IC50s of inhibition of platelet granule secretion induced with ADP
[3] = Homo sapiens, Platelet, agonist PMA, read-out: IC50s of inhibition of platelet granule secretion induced with PMA
[4] = Homo sapiens, Platelet, agonist U-46619, read-out: IC50s of inhibition of platelet granule secretion induced with U-46619
[5] = Homo sapiens, Platelet, agonist SFLLR, read-out: IC50s of inhibition of platelet granule secretion induced with SFLLR
[6] = Homo sapiens, Platelet, agonists SFLLR and U-46619, read-out: IC50 SFLLR- and U-46619-induced activation
[7] = Homo sapiens, Platelet, agonist SFLLRN/SFLLR, human platelets, read-out: IC50 SFLLRN-induced P-selectin expression, flow cytometry
[8] = Homo sapiens, Platelet, agonists U-46619, ADP, PMA, read-out: IC50 U-46619-, ADP-, and PMA-induced platelet responses

Nc1cc2cccnc2c2ncccc12 [[1,10]Phenanthroline-5-ylamine]
IC50 (platelet GPIIbIIIa): 50 µM | Effect on PGE1-stimulated cAMP levels in platelets [1]: failed to augment | IC50 (platelets; [2]): 50 µM | IC50 (platelets; [3]): > 1000 µM | IC50 (platelets; [4]): 30 µM | IC50 (platelets; [5]): 50 µM | IC50 (platelets; agonist ADP, read-out: IC50s of inhibition of platelet granule secretion induced with ADP): 100 µM | Inhibition of PMA-induced platelet responses (platelets; agonist PMA): did not inhibit

CC(=O)OC(CC(=O)c1ccc(Cl)cc1Cl)C(Cl)(Cl)Cl (centres unmarked) [acetic acid 3-(2,4-dichlorophenyl)-3-oxo-1-trichloromethyl-propyl ester]
IC50 (platelet GPIIbIIIa): 30 µM | IC50 (platelets; [2]): 200 µM | IC50 (platelets; [3]): 200 µM | IC50 (platelets; [4]): 20 µM | IC50 (platelets; Homo sapiens, Platelet, agonists ADP and PMA, read-out: IC50 ADP- and PMA-induced activation): ~200 µM | IC50 (platelets; [6]): 20 to 50 µM | IC50 (platelets; [5]): 50 µM

CC1CC(=O)NN=C1c1ccc(Cl)cc1 (centres unmarked) [Structure 9, 6-(4-chlorophenyl)-5-methyl-4,5-dihydro-5 methyl-3(2H)-pyridazinone]
ADP-induced responses inhibited less effectively than SFLLR and U46619 responses (platelets; ADP vs SFLLR and U46619): approximately 20 fold | IC50 (platelets; [2]): 8 µM | IC50 (platelets; [6]): 0.3 µM | Inhibition of PMA-induced platelet activation (platelets; agonist PMA): did not inhibit

CCCCn1c2c(c(=N)c3ccccc31)CCC2 [JF081204{4C}]
IC50 (platelets; [7]): 2 to 150 µM

CCCn1c2c(c(=N)c3ccccc31)CCC2 [JF081204{3C}]
IC50 (platelets; [7]): 2 to 150 µM

O=C(CN1CCOCC1)N1c2ccccc2Sc2ccc(C(F)(F)F)cc21 [10H-phenothiazine, 10-(4-morpholinylacetyl)-2-(trifluoromethyl)]
IC50 (platelet GPIIbIIIa): 50 µM | IC50 (platelets; [2]): 150 µM | IC50 (platelets; [3]): 85 µM | IC50 (platelets; [4]): 100 µM | IC50 (platelets; [5]): 80 µM

Cn1cc(/C=N/NC(N)=O)c2ccccc21 [2-[(1-methyl-1H-indol-3-yl)methylene]-hydrazinecarboxamide]
Effect on PGE1-stimulated cAMP levels in platelets [1]: augmented | IC50 (platelets; [2]): 1000 µM | IC50 (platelets; [3]): 1000 µM | IC50 (platelets; [4]): 20 µM | IC50 (platelets; [6]): 20 to 50 µM | IC50 (platelets; [5]): 50 µM | Effect on ADP- and PMA-induced activation (platelets; agonists ADP and PMA): little effect

CCCn1c2c(c(=N)c3ccccc31)CCC2 [I]
IC50 (platelets; [8]): ~500 µM

CCOC(=O)C1(C2(O)C(=O)c3ccccc3C2=O)CCCC1=O (centres unmarked) [1-(2-hydroxy-1,3-dioxo-indan-2-yl)-2-oxo-cyclopentanecarboxylic acid ethyl ester]
IC50 (platelet GPIIbIIIa): 50 µM | IC50 (platelets; [2]): 50 µM | IC50 (platelets; [3]): > 1000 µM | IC50 (platelets; [4]): 30 µM | IC50 (platelets; [5]): 50 µM | Inhibition of PMA-induced platelet responses (platelets; agonist PMA): no activity

CCCCn1c2c(c(=N)c3ccccc31)CCC2 [II]
IC50 (platelets; [8]): ~500 µM

O=C1NC(=O)N(c2cccc3ccccc23)C(=O)/C1=C\c1ccco1 [5-(2-furanylmethylene)-1-1-naphthalenyl)-2,4,6(1H, 3H, 5H)-pyrimidinetrione]
IC50 (platelet GPIIbIIIa): 100 µM | IC50 (platelets; Homo sapiens, Platelet, read-out: IC50s of inhibition of platelet granule secretion induced with ADP): 60 µM | IC50 (platelets; Homo sapiens, Platelet, read-out: IC50s of inhibition of platelet granule secretion induced with PMA): 150 µM | IC50 (platelets; Homo sapiens, Platelet, read-out: IC50s of inhibition of platelet granule secretion induced with SFLLR): 100 µM | IC50 (platelets; Homo sapiens, Platelet, read-out: IC50s of inhibition of platelet granule secretion induced with U-46619): 50 µM

CCCCCn1c2c(c(=N)c3ccccc31)CCC2 [III]
IC50 (platelets; [8]): ~500 µM
